According to ChEMBL document CHEMBL2396533, “Γ-aminobutyric acid(C) (GABAC) selective antagonists derived from the bioisosteric modification of 4-aminocyclopent-1-enecarboxylic acid: amides and hydroxamates” (J Med Chem, 2013):
The source made the active and inactive calls. The calls are words filed in the database; no cut-off is given here.

How the values were obtained:
[1] = molecular target: T1, Gamma-aminobutyric acid receptor subunit rho-1 (Homo sapiens, UniProt P24046); experiment: Antagonist activity at human recombinant GABAA rho1 receptor expressed in Xenopus laevis assessed as inhibition of GABA-induced chloride current production after 2 to 5 days by two-electrode voltage-clamp electrophysiological assay
T1 sequence (P24046 whole entry): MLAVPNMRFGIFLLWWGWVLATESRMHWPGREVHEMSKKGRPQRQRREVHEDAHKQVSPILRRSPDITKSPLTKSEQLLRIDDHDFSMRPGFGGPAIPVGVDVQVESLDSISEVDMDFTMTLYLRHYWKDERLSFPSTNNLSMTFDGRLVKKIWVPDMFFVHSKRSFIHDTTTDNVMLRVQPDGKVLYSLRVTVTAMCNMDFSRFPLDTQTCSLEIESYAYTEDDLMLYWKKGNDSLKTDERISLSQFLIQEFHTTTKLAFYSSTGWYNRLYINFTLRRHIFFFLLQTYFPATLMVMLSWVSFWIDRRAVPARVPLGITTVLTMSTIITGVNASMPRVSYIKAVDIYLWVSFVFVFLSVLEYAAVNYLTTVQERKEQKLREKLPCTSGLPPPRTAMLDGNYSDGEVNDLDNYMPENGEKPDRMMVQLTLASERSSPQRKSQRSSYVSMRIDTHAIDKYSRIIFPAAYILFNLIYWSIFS

[2] = molecular target: T2, GABA-A receptor; alpha-1/beta-2/gamma-2 (Homo sapiens) (UniProt P14867+P47870+P18507); experiment: Agonist activity at human recombinant GABAAalpha1beta2gamma2L receptor expressed in Xenopus laevis assessed as induction of chloride current production at 300 uM after 2 to 5 days by two-electrode voltage-clamp electrophysiological assay relative to GABA
[3] = molecular target: T2, GABA-A receptor; alpha-1/beta-2/gamma-2 (Homo sapiens); experiment: Antagonist activity at human recombinant GABAAalpha1beta2gamma2L receptor expressed in Xenopus laevis assessed as inhibition of GABA-induced chloride current production at 300 uM after 2 to 5 days by two-electrode voltage-clamp electrophysiological assay relative to control
[4] = molecular target: T1, Gamma-aminobutyric acid receptor subunit rho-1; experiment: Antagonist activity at human recombinant GABAA rho1 receptor expressed in Xenopus laevis assessed as inhibition of GABA-induced chloride current production at 300 uM after 2 to 5 days by two-electrode voltage-clamp electrophysiological assay relative to control

Structure (SMILES): CCONC(=O)C1=CCC(N)C1 (racemic)
- IC50 [1]: 153 µM
- Activity [2]: 2.5%

Structure (SMILES): C=CCONC(=O)C1=CCC(N)C1 (racemic)
- IC50 [1]: 115 µM
- Activity [2]: 1.7%

Structure (SMILES): CCCCCNC(=O)C1=CCC(N)C1 (racemic)
- inhibition [3]: inactive
- inhibition [4]: 20.5%
- Activity [2]: inactive

Structure (SMILES): NC1CC=C(C(=O)O)C1 (racemic)
- IC50 [1]: 6.6 µM
- Activity [2]: 59.7%

Structure (SMILES): NC1CC=C(C(=O)NO)C1 (racemic)
- IC50 [1]: 12.9 µM
- Activity [2]: 4.3%

Structure (SMILES): CNC(=O)C1=CCC(N)C1 (racemic)
- IC50 [1]: 408 µM
- inhibition [3]: inactive
- Activity [2]: inactive

Structure (SMILES): CCCNC(=O)C1=CCC(N)C1 (racemic)
- IC50 [1]: 570 µM
- inhibition [3]: inactive
- Activity [2]: inactive

Structure (SMILES): NC(=O)C1=CCC(N)C1 (racemic)
- IC50 [1]: 9.6 µM
- inhibition [3]: 23.3%

Structure (SMILES): CONC(=O)C1=CCC(N)C1 (racemic)
- IC50 [1]: 81.5 µM
- Activity [2]: 6.3%

Structure (SMILES): Cc1ccc(NC(=O)C2=CCC(N)C2)cc1 (racemic)
- inhibition [3]: inactive
- inhibition [4]: 11.3%
- Activity [2]: inactive
